# Source: patent publication US20150175599A1, “FAAH Inhibitors” (Ironwood Pharmaceuticals, Inc., priority 2010, published 2015)
# Target: T1, hERG channel (Homo sapiens, UniProt Q12809)
# T1 construct: expressed in transfected cells; host or cells: CHO (hERG-CHO), under Geneticin selection
# Experiment: hERG channel inhibition, automated patch clamp (IonWorks HT, hERG-CHO)
# Type: cell-based
# Settings: CHO cells expressing hERG, 600 s incubation; for inhibition at 600 s, 1 µM: 1 μM compound, read-out: hERG Channel Inhibition % (at 1 μM), vehicle-subtracted values; for inhibition at 600 s, 10 µM: 10 μM compound, read-out: hERG Channel Inhibition % (at 10 μM), vehicle-subtracted values
# Summary of the method: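 hERG-CHO cells held at 30 °C for 48 h before IonWorks HT patch clamp: from −80 mV to +40 for 2 s, then −50 mV for 2 s tail, repeated three times, before and after 600 s compound exposure. Third-pulse post/pre tail amplitude ratio gave percent inhibition; cells with seal <50 MOhm or tail <250 pA excluded.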
# T1 sequence (Q12809 whole entry): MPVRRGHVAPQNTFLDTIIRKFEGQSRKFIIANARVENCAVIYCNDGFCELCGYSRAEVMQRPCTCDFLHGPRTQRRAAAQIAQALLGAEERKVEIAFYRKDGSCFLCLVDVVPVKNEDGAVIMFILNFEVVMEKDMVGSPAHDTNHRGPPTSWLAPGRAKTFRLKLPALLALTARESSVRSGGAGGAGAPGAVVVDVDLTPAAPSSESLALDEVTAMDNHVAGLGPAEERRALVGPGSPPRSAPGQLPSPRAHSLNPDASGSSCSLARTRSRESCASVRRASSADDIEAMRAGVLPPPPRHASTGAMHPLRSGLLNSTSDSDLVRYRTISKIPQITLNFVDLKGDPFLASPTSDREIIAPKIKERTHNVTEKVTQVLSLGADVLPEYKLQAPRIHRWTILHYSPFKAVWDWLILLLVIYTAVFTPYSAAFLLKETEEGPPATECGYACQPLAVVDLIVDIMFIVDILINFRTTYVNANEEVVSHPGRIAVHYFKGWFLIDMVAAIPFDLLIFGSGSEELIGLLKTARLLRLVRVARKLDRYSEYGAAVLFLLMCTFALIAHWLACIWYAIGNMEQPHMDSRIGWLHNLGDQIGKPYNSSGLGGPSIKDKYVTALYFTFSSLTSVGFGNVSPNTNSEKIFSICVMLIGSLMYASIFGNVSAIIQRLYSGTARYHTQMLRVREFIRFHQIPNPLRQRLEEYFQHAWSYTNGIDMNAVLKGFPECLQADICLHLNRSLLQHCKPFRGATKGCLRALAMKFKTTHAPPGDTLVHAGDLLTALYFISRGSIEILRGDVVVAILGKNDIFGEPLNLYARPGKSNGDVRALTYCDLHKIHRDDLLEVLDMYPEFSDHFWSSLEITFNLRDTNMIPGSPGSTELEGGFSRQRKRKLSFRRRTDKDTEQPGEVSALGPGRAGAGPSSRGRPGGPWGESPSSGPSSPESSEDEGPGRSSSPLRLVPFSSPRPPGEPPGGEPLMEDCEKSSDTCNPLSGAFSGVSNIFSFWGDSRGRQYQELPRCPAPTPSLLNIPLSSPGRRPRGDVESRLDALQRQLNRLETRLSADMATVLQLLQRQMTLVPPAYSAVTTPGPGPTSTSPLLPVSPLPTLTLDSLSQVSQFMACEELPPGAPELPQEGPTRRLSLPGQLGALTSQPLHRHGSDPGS
SMILES,"inhibition at 600 s, 1 µM","inhibition at 600 s, 10 µM"
"COc1cc(NC(=O)C(=O)c2c(C)n(Cc3ccc(Cl)cc3)c3cccnc23)ccn1 [Compound 3, 2-(1-(4-chlorobenzyl)-2-methyl-1H-pyrrolo[3,2-b]pyridin-3-yl)-N-(2-methoxypyridin-4-yl)-2-oxoacetamide]",< 25%,25 to 50%
"COc1ccc2c(c1)c(C(=O)C(=O)Nc1ccnc(OC)c1)c(C)n2Cc1cccnc1 [Compound 78, 2-(5-methoxy-2-methyl-1-(pyridin-3-ylmethyl)-1H-indol-3-yl)-N-(2-methoxypyridin-4-yl)-2-oxoacetamide]",< 25%,25 to 50%
"COc1ccc2c(c1)c(C(=O)C(=O)Nc1ccnc(OC)c1)c(C)n2Cc1ccc(Cl)cn1 [Compound 79, 2-(1-((5-chloropyridin-2-yl)methyl)-5-methoxy-2-methyl-1H-indol-3-yl)-N-(2-methoxypyridin-4-yl)-2-oxoacetamide]",< 25%,< 25%
"COc1cc(NC(=O)C(=O)c2c(C)n(Cc3ccc(Cl)cc3)c3cc(OC)c(Cl)cc23)ccn1 [Compound 80, 2-(5-chloro-1-(4-chlorobenzyl)-6-methoxy-2-methyl-1H-indol-3-yl)-N-(2-methoxypyridin-4-yl)-2-oxoacetamide]",< 25%,< 25%
"COc1ccc2c(c1)c(C(=O)C(=O)Nc1ccnc(OC)c1)c(C)n2Cc1ncc(F)cc1F [Compound 81, 2-(1-((3,5-difluoropyridin-2-yl)methyl)-5-methoxy-2-methyl-1H-indol-3-yl)-N-(2-methoxypyridin-4-yl)-2-oxoacetamide]",< 25%,< 25%
"COc1ccc2c(c1)c(C(=O)C(=O)Nc1ccnc(OC)c1)c(C)n2Cc1ncc(Cl)cc1Cl [Compound 82, 2-(1-((3,5-dichloropyridin-2-yl)methyl)-5-methoxy-2-methyl-1H-indol-3-yl)-N-(2-methoxypyridin-4-yl)-2-oxoacetamide]",< 25%,< 25%
"COc1ccc2c(c1)c(C(=O)C(=O)Nc1ccnc(OC)c1)c(C)n2Cc1ccc(C)cn1 [Compound 84, 2-(5-methoxy-2-methyl-1-((5-methylpyridin-2-yl)methyl)-1H-indol-3-yl)-N-(2-methoxypyridin-4-yl)-2-oxoacetamide]",< 25%,< 25%
"COc1cc(NC(=O)C(=O)c2c(C)n(Cc3ccc(F)cn3)c3ccc(C)cc23)ccn1 [Compound 85, 2-(1-((5-fluoropyridin-2-yl)methyl)-2,5-dimethyl-1H-indol-3-yl)-N-(2-methoxypyridin-4-yl)-2-oxoacetamide]",< 25%,25 to 50%
"COc1ccc2c(c1)c(C(=O)C(=O)Nc1ccnc(OC)c1)c(C)n2Cc1ncc(Cl)cc1F [Compound 87, 2-(1-((5-chloro-3-fluoropyridin-2-yl)methyl)-5-methoxy-2-methyl-1H-indol-3-yl)-N-(2-methoxypyridin-4-yl)-2-oxoacetamide]",< 25%,< 25%
"COc1cc(NC(=O)C(=O)c2c(C)n(Cc3ccc(Cl)cc3)c3cc(F)c(C)cc23)ccn1 [Compound 89, 2-(1-(4-chlorobenzyl)-6-fluoro-2,5-dimethyl-1H-indol-3-yl)-N-(2-methoxypyridin-4-yl)-2-oxoacetamide]",< 25%,< 25%
"COc1cc(NC(=O)C(=O)c2c(C)n(Cc3ccc(Cl)cn3)c3cc(F)c(C)cc23)ccn1 [Compound 90, 2-(1-((5-chloropyridin-2-yl)methyl)-6-fluoro-2,5-dimethyl-1H-indol-3-yl)-N-(2-methoxypyridin-4-yl)-2-oxoacetamide]",< 25%,< 25%
"COc1cc(NC(=O)C(=O)c2c(C)n(Cc3ccc(Cl)cc3Cl)c3cc(F)c(OC)cc23)ccn1 [Compound 92, 2-(1-(2,4-dichlorobenzyl)-6-fluoro-5-methoxy-2-methyl-1H-indol-3-yl)-N-(2-methoxypyridin-4-yl)-2-oxoacetamide]",< 25%,< 25%
"COc1cc(NC(=O)C(=O)c2c(C)n(Cc3ccc(Cl)cc3)c3cc(Cl)c(C)cc23)ccn1 [Compound 93, 2-(6-chloro-1-(4-chlorobenzyl)-2,5-dimethyl-1H-indol-3-yl)-N-(2-methoxypyridin-4-yl)-2-oxoacetamide]",< 25%,< 25%
"COc1cc(NC(=O)C(=O)c2c(C)n(Cc3ccc(Cl)cn3)c3cc(Cl)c(C)cc23)ccn1 [Compound 94, 2-(6-chloro-1-((5-chloropyridin-2-yl)methyl)-2,5-dimethyl-1H-indol-3-yl)-N-(2-methoxypyridin-4-yl)-2-oxoacetamide]",< 25%,< 25%
